According to PMC8286817, “Identifying SARS-CoV-2 antiviral compounds by screening for small molecule inhibitors of Nsp14 RNA cap methyltransferase” (Biochemical Journal, 2021):
Where a name gives a salt, the structure may show the parent alone. Read-outs that look alike come from different tables or passages of the source. Peptide text beside a SMILES is read from it. * marks the point of attachment. Cbz = O=C(OCc1ccccc1)*

Columns and labels:
[1] = target: T1, SARS-CoV-2 nsp14 guanine-N7 methyltransferase (Severe acute respiratory syndrome coronavirus 2, UniProt P0DTD1); type: biochemical
[2] = target: T1, SARS-CoV-2 nsp14 guanine-N7 methyltransferase; test: biochemical; type: biochemical; details: for Km: read-out: Km (Michaelis constant) of substrate for nsp14

Compound | Z-Score in primary screen [1] | further results
CC(N)c1cccc(Cl)c1Cl.Cl (racemic) [(±)-2,3-Dichloro-alpha-methylbenzylamine hydrochloride] | 3.186 | 
C[C@@H]1O[C@H](C[N+](C)(C)C)C[C@H]1O.[Cl-] (racemic) [(±)-Muscarine chloride] | 3.736 | 
CCCCC[C@H](O)/C=C/C=C\C/C=C\C=C\[C@@H](O)CCCC(=O)O [5(S),15(S)-DIHETE] | 3.436 | 
Br.NC1CCc2cc(O)c(O)cc2C1 (stereo not shown) [6,7-ADTN hydrobromide] | 3.690 | 
CCC(Sc1nnc2c(n1)[nH]c1ccccc12)C(=O)N1c2ccccc2Sc2ccccc21 (stereo not shown) [10-[2-(5H-[1,2,4]triazino[5,6-b]indol-3-ylsulfanyl)butanoyl]-10H-phenothiazine] | 5.999 | 
C1=C2CCCN[C@H]2[C@@H]2C[C@H]1[C@H]1CCCCN1C2 [Aloperine] | 6.366 | 
C[C@@H]1CC[C@H]2[C@@H](C)C(=O)O[C@@H]3O[C@@]4(C)CC[C@@H]1[C@]32OO4 [Artemisisin] | 2.850 | 
CCCCOc1ccc(CC(=O)NO)cc1 [Bufexamac] | 5.383 | 
CCCCNc1cc(C(=O)O)cc(S(N)(=O)=O)c1Oc1ccccc1 [Bumetanide] | 3.246 | 
CCCCN1CCCCC1C(=O)Nc1c(C)cccc1C (stereo not shown) [Bupivacaine] | 3.673 | 
C[C@H](N)C(=O)N1C[C@H](CCCB(O)O)[C@](N)(C(=O)O)C1 [CB-1158 (dihydrochloride)] | 4.540 | 
CC(C[N+](C)(C)C)OC(N)=O (stereo not drawn) [Carbamyl-beta-methylcholine] | 3.385 | 
Cc1c(C(=O)O)c(O)cc2c1C(=O)c1c(O)c([C@@H]3O[C@H](CO)[C@@H](O)[C@H](O)[C@H]3O)c(O)c(O)c1C2=O [Carminic acid] | 3.060 | 
CCn1nc(C(=O)O)c(=O)c2cc3c(cc21)OCO3 [Cinoxacin] | 3.126 | 
c1ccc(CNc2nc(NCc3ccccc3)c3ccccc3n2)cc1 [DBeQ] | 4.776 | 
c1ccc2c(c1)N=C(N1CCNCC1)c1ccccc1N2 [DREADD agonist 21] | 3.333 | 
CNCCCN1c2ccccc2CCc2ccccc21 [Desipramine hydrochloride] | 4.460 | 
COc1ccc2c(c1)[C@]13CCCC[C@@H]1[C@H](C2)N(C)CC3 [Dextromethorphan] | 3.036 | 
O=c1c2ccccc2[se]n1-c1ccccc1 [Ebselen] | 5.010 | 
CCC1(C)CC(=O)NC1=O (stereo not shown) [Ethosuximide] | 3.595 | 

Compound | Z-Score in primary screen [1] | further results
CC(Cc1ccc(O)cc1)NCC(O)c1cc(O)cc(O)c1 (stereo not shown) [Fenoterol hydrobromide] | 3.275 | 
CC(C)C(=O)Nc1ccc([N+](=O)[O-])c(C(F)(F)F)c1 [Flutamide] | 3.970 | 
Nc1nc2c(ncn2[C@@H]2O[C@H](COP(=O)(O)OP(=O)(O)OP(=O)(O)O)[C@@H](O)[C@H]2O)c(=O)[nH]1 [GTP] |  | Km [2]: 301 ± 110 µM
Nc1nc2c(ncn2[C@@H]2O[C@H](COP(=O)(O)OP(=O)(O)OP(=O)(O)OC[C@H]3O[C@@H](n4cnc5c(N)ncnc54)[C@H](O)[C@@H]3O)[C@@H](O)[C@H]2O)c(=O)[nH]1 [GpppA] |  | Km [2]: 114 ± 21 µM
C[C@]12CCC(=O)C=C1CC[C@@H]1[C@@H]2[C@@H](O)C[C@@]2(C)[C@H]1CC[C@]2(O)C(=O)CO [Hydrocortisone] | 4.062 | 
COc1cc2c(cc1OC)CC(=O)N(CCCN(C)C[C@H]1Cc3cc(OC)c(OC)cc31)CC2 [Ivabradine] | 2.786 | 
CCN1C[C@]2(C)CC[C@H](O)[C@]34C1[C@@H](C[C@H]23)[C@@]1(O)C[C@H](OC)[C@H]2C[C@@H]4[C@@H]1[C@H]2O [Karakoline] | 3.794 | 
Cl.Cl.Cl.Ic1ccc(N2CCN(Cc3c[nH]c4ncccc34)CC2)cc1 [L-750,667 trihydrochloride] | 3.788 | 
Nc1nc(OCc2cc(Br)cs2)c2[nH]cnc2n1 [Lomeguatrib] | 2.697 | IC50 [2]: 59.8 µM
CC(C)[C@H](NC(=O)OCc1ccccc1)C(=O)N[C@H](C=O)Cc1ccccc1 [MDL 28170] (Cbz-Val-Phe-aldehyde) | 3.310 | 
CNC[C@H](O)[C@@H](O)[C@H](O)[C@H](O)CO [Meglumine] | 3.529 | 
CC1(C)CNc2cc(NC(=O)c3cccnc3NCc3ccncc3)ccc21 [Motesanib] | 3.875 | 
O=c1c(O)c(-c2cc(O)c(O)c(O)c2)oc2cc(O)cc(O)c12 [Myricetin] | 6.539 | 
CC(COc1ccc(/C=C/c2ccccc2)cc1)[N+](C)(C)C.[I-] (stereo not drawn) [N,N,N-trimethyl-1-(4-trans-stilbenoxy)-2-propylammonium iodide] | 3.028 | 
CNCCc1ccc(O)c(O)c1.Cl [N-Methyldopamine hydrochloride] | 3.906 | 
COc1ccc(C2=N[C@H](c3ccc(Cl)cc3)[C@H](c3ccc(Cl)cc3)N2C(=O)N2CCNC(=O)C2)c(OC(C)C)c1 [Nutlin (3b)] | 4.552 | 
O=C(O)CCCCCCC(=O)O [Octanedioic acid] | 3.256 | 
N#Cc1ccc(N2N=C3c4ccc(C(=O)O)cc4CC[C@@H]3[C@@H]2C2CCCC2)cc1Cl [PF-03882845] | 5.080 | 
CCCN1C[C@H](CSC)C[C@@H]2c3cccc4[nH]cc(c34)C[C@H]21 [Pergolide methanesulfonate] | 3.690 | 
O=C1NC(=O)C(c2ccccc2)(c2ccccc2)N1 [Phenytoin sodium] | 3.651 | 

Compound | Z-Score in primary screen [1] | further results
CCCCCCCCCCCCCC(=O)O[C@@H]1[C@@H](C)[C@@]2(O)[C@@H](C=C(CO)C[C@]3(O)C(=O)C(C)=C[C@@H]23)[C@@H]2C(C)(C)[C@]12OC(C)=O [Phorbol 12-myristate 13-acetate] | 7.036 | 
CN1CCc2cc(Cl)c(O)cc2[C@@H](c2ccccc2)C1.Cl [R(+)-SCH-23390 hydrochloride] | 3.847 | 
COc1ccc(CCNC[C@H](O)c2ccc(O)cc2)cc1OC [R(-)-Denopamine] | 5.027 | 
Cc1cncc(CN2CCC(=C3c4ccc(Cl)cc4CCc4cccnc43)CC2)c1.O=C(O)/C=C/C(=O)O [Rupatadine Fumarate] | 3.745 | 
C[n+]1ccccc1CC(=O)c1ccc(Br)cc1.[I-] [S 24795] | 3.557 | 
Nc1ncnc2c1ncn2C1CCCO1 (stereo not shown) [SQ 22536] | 3.378 | 
Cl.NC1CCN(c2cccc(Cl)n2)CC1 [SR 57227A] | 4.099 | 
NC(=O)C(=O)O [Sodium Oxamate] | 3.379 | 
CCN(CC)CC.Nc1ncnc2c1ncn2[C@@H]1O[C@@H]2COP(O)(=S)O[C@H]2[C@H]1O (stereo partly shown) [Sp-cAMPS triethylamine] | 3.048 | 
C[N+]1(C)CCC[C@H]1C(=O)[O-].Cl [Stachydine hydrochloride] | 2.622 | 
O=C(CCCN1CCC(O)(c2cccc(C(F)(F)F)c2)CC1)c1ccc(F)cc1 [Trifluperidol] | 5.671 | IC50 [2]: 12.9 µM
CC(C)(C)c1cc(C=C(C#N)C#N)cc(C(C)(C)C)c1O [Tyrphostin A9] | 3.261 | 
Brc1c(NC2=NCCN2)ccc2nccnc12 [UK 14,304] | 3.074 | 
NC(N)=NCc1cccc(I)c1.NC(N)=NCc1cccc(I)c1.O=S(=O)(O)O [m-Iodobenzylguanidine hemisulfate] | 4.530 | 
Nc1ccc(C(=O)O)cc1 [p-Aminobenzoic acid] | 2.479 | 
Nc1ncnc2c1ncn2[C@@H]1O[C@H](C[C@@H](N)CC[C@H](N)C(=O)O)[C@@H](O)[C@H]1O [sinefungin] |  | Inhibition of nsp14 activity (HTRF signal) [2]: inhibited nsp14 activity in a dose-dependent manner
Bioymifi | 3.204 | 
Inauhzin | 3.833 | IC50 ([2]; read-out: Normalised HTRF50 (inhibition of nsp14 methyltransferase activity)): 23 µM
